The results in this text go back to patent publication US20230357310A1, “Saponin derivatives with improved therapeutic window” (priority 2019, published 2023).

Some results are limits rather than exact numbers.

A short description of the data set: Critical micellar concentration (ANS fluorescence). To be noted: for CMC compared with native (underivatised) saponin: comparison in words; for CMC: SO saponins, determined in PBS, Table A7. It counts as physicochemical. Here is the method:
The critical micellar concentration (CMC) of saponins derived from Saponaria officinalis (SO) (Table A7) and derived from Quillaja saponaria (QS) (Table A8, and Table A9) was determined by the method of DeVendittis et al. (A fluorimetric method for the estimation of the critical micelle concentration of surfactants, Analytical Biochemistry, Volume 115, Issue 2, August 1981, Pages 278-286) as follows:
The emission spectrum of 8-Anilinonaphthalene-1-sulfonic acid (ANS) in either purified water (MQ) or PBS (Dulbecco's PBS+/+) was determined at dry weight concentrations of saponins ranging from 1 to 1400 μM to cover the range below and above the CMC. Above the CMC, the fluorescence yield of ANS increases and the wavelength of maximum emission decreases due to portioning of the fluorescent dye into micelles. Fluorescence yields were recorded on a Fluoroskan Ascent FL (Thermo Scientific) at an excitation wavelength of 355 nm, and an emission wavelength of 460 nm. 6 μg at a concentration of 75.86 μM of ANS were used per sample and measurement.

With `CC(=O)OC1C(C)OC(OC2C(C)OC(OC(=O)C34CCC(C)(C)CC3C3=CCC5C6(C)CCC(OC7OC(C(=O)O)C(O)C(OC8OCC(O)C(O)C8O)C7OC7OC(CO)C(O)C(O)C7O)C(C)(C=NNC(=O)CCCCCN7C(=O)C=CC7=O)C6CCC5(C)C3(C)CC4O)C(OC3OC(C)C(OC4OCC(O)C(OC5OC(CO)C(O)C(O)C5O)C4O)C(O)C3O)C2O)C(O)C1OC1OCC(O)C(O)C1O` (centres unmarked) [Molecule 2], the “CMC compared with native (underivatised) saponin” value (“CMC compared with native” for short) is given as “increased CMC”.
Still for that read-out and setting: the same measure for `CC1OC(OC2C(C)OC(OC(=O)[C@]34CCC(C)(C)CC3C3=CCC5[C@@]6(C)CC[C@H](OC7OC(C(=O)NC(C)(CO)CO)C(O)C(OC8OCC(O)C(O)C8O)C7OC7OC(CO)C(O)C(O)C7O)[C@@](C)(C=O)C6CC[C@@]5(C)[C@]3(C)C[C@H]4O)C(OC3OC(C)C(OC4OCC(O)C(OC5OC(CO)C(O)C(O)C5O)C4O)C(O)C3O)C2O)C(O)C(OC2OCC(O)C(O)C2O)C1O` (some centres unmarked) [SO1861-(Ac—OH)-(Glu-AMPD)]: “lower CMC values”.
For the compound `CC1OC(OC2C(C)OC(OC(=O)C34CCC(C)(C)CC3C3=CCC5C6(C)CCC(OC7OC(C(=O)O)C(O)C(OC8OCC(O)C(O)C8O)C7OC7OC(CO)C(O)C(O)C7O)C(C)(C=NNC(=O)CCCCCN7C(=O)C=CC7=O)C6CCC5(C)C3(C)CC4O)C(OC3OC(C)C(OC4OCC(O)C(OC5OC(CO)C(O)C(O)C5O)C4O)C(O)C3O)C2O)C(O)C(OC2OCC(O)C(O)C2O)C1O` (centres unmarked) [SO1861-(Ald-EMCH)-(Ac—OH)], the “CMC” value was greater than 300 µM. The “CMC compared with native” value (listed as SO1861-(Ald-EMCH)—(Ac—OH)) is reported as “increased CMC values”.
Take `CC(=O)OC1C(C)OC(OC2C(C)OC(OC(=O)C34CCC(C)(C)CC3C3=CCC5C6(C)CCC(OC7OC(C(=O)NC(C)(CO)CO)C(O)C(OC8OCC(O)C(O)C8O)C7OC7OC(CO)C(O)C(O)C7O)C(C)(C=NNC(=O)CCCCCN7C(=O)C=CC7=O)C6CCC5(C)C3(C)CC4O)C(OC3OC(C)C(OC4OCC(O)C(OC5OC(CO)C(O)C(O)C5O)C4O)C(O)C3O)C2O)C(O)C1OC1OCC(O)C(O)C1O` (centres unmarked) [SO1861-(Ald-EMCH)-(Glu-AMPD)]: the “CMC” value is greater than 30 µM and the “CMC compared with native” value is “lower CMC values”.
As to `CC1OC(OC2C(C)OC(OC(=O)[C@]34CCC(C)(C)CC3C3=CCC5[C@@]6(C)CC[C@H](OC7OC(C(=O)O)C(O)C(OC8OCC(O)C(O)C8O)C7OC7OC(CO)C(O)C(O)C7O)[C@@](C)(CO)C6CC[C@@]5(C)[C@]3(C)C[C@H]4O)C(OC3OC(C)C(OC4OCC(O)C(OC5OC(CO)C(O)C(O)C5O)C4O)C(O)C3O)C2O)C(O)C(OC2OCC(O)C(O)C2O)C1O` (some centres unmarked) [SO1861-(Ald-OH)-(Ac—OH)], the “CMC” value was greater than 280 µM. Also, the “CMC compared with native” value (listed as SO1861-(Ald-OH)—(Ac—OH)) is on record as “increased CMC values”.
Consider `CC(=O)OC1C(C)OC(OC2C(C)OC(OC(=O)[C@]34CCC(C)(C)CC3C3=CCC5[C@@]6(C)CC[C@H](OC7OC(C(=O)NC(C)(CO)CO)C(O)C(OC8OCC(O)C(O)C8O)C7OC7OC(CO)C(O)C(O)C7O)[C@@](C)(CO)C6CC[C@@]5(C)[C@]3(C)C[C@H]4O)C(OC3OC(C)C(OC4OCC(O)C(OC5OC(CO)C(O)C(O)C5O)C4O)C(O)C3O)C2O)C(O)C1OC1OCC(O)C(O)C1O` (some centres unmarked) [SO1861-(Ald-OH)-(Glu-AMPD)], for which the “CMC compared with native” value is recorded as “lower CMC values”.
On the same count and under the same terms, with `CC1OC(OC2C(C)OC(OC(=O)[C@]34CCC(C)(C)CC3C3=CCC5[C@@]6(C)CC[C@H](OC7OC(C(=O)NCCN8C(=O)C=CC8=O)C(O)C(OC8OCC(O)C(O)C8O)C7OC7OC(CO)C(O)C(O)C7O)[C@@](C)(C=O)C6CC[C@@]5(C)[C@]3(C)C[C@H]4O)C(OC3OC(C)C(OC4OCC(O)C(OC5OC(CO)C(O)C(O)C5O)C4O)C(O)C3O)C2O)C(O)C(OC2OCC(O)C(O)C2O)C1O` (some centres unmarked) [SO1861-(Glu-AEM)-(Ac—OH)] the entry was “lower CMC values”.
In the case of `CC1OC(OC2C(C)OC(OC(=O)[C@]34CCC(C)(C)CC3C3=CCC5[C@@]6(C)CC[C@H](OC7OC(C(=O)NCCN8C(=O)C=CC8=O)C(O)C(OC8OCC(O)C(O)C8O)C7OC7OC(CO)C(O)C(O)C7O)[C@@](C)(CO)C6CC[C@@]5(C)[C@]3(C)C[C@H]4O)C(OC3OC(C)C(OC4OCC(O)C(OC5OC(CO)C(O)C(O)C5O)C4O)C(O)C3O)C2O)C(O)C(OC2OCC(O)C(O)C2O)C1O` (some centres unmarked) [SO1861-(Glu-AEM)-(Ald-OH)-(Ac—OH)], the “CMC” value is greater than 150 µM.
